Where a name gives a salt, the structure may show the parent alone.
How the values were obtained:
[1] = Acute toxicity, oral, mice; details: mouse, in vivo, p.o., 7 days mortality
Procedure: (§1) Male dd mice weighing 19-21 g and male Wistar rats weighing 170-190 g were used in groups of 3-6 animals. The drugs were suspended in a 0.3% carboxymethyl cellulose solution and administered orally. […] As the reference compound, benzydamine.HCl was dissolved in water and administered orally. (In Example, 6, 7 and 8, the drugs and benzydamine. HCl were also administered in the same manner.

[2] = Acute toxicity, oral, rats; details: rat, in vivo, p.o., 7 days mortality
Procedure: as §1

mice [3] = experiment: Muscle relaxant activity: slant test; assay type: in vivo, male dd mice
Procedure: (§2) Groups of 5 male dd mice weighing 19-21 g were used. The mice which remained for a period of 3 min. on a 3 cm diameter rod rotating at 5 r.p.m. were selected and tested to determine the muscle relaxant activity at 1, 2 and 4 hr. after drug administration. The methods employed are as follows.
Each mouse was mounted on a 45°-inclined wire netting to examine whether it fell off or not.
(§3) In each test, the compound was considered to have the muscle relaxant activity when the mice fell off.

mice [4] = experiment: Muscle relaxant activity: traction test; assay type: in vivo, male dd mice
Procedure: as §2
Forefeet of each mouse were placed on a wire to examine whether it fell off or not.
as §3

mice [5] = experiment: Muscle relaxant activity: rotating rod test; assay type: in vivo, male dd mice
Procedure: as §2
Each mouse was mounted on a rotating rod to examine whether it fell off or not within 2 min.
as §3

[6] = test system: tonic extensor seizures in mice (electroshock); experiment: Maximal electroshock convulsion test; assay type: in vivo, male dd mice; details: 100 mg/Kg p.o., 1 hr before shock; blocking tonic extensor seizures
Procedure: (§4) Anticonvulsant activity was determined according to the following three methods.
Groups of 10 male dd mice weighing 22-24 g were used. The drugs were orally administered and one hr. later, the mice were subjected to an electric current (2000 V, 50 mA) for 0.2 sec. through corneal electrodes. Drug activity is expressed as the percent blocking tonic extensor seizures.

[7] = test system: tonic extensor seizures in mice (strychnine); experiment: Strychnine convulsion test; assay type: in vivo, male dd mice; details: 1 hr before strychnine 2 mg/kg s.c.
Procedure: as §4
Groups of 10 male dd mice weighing 19-21 g were used. The drugs were orally administered and one hr. later, strychnine was injected subcutaneously at 2 mg/kg. Drug activity is expressed as the percent blocking tonic extensor seizures.

[8] = test system: clonic seizures in mice (pentetrazol); experiment: Pentetrazol convulsion test; assay type: in vivo, male dd mice; details: 1 hr before pentetrazol 120 mg/kg s.c.
Procedure: as §4
Groups of 10 male dd mice weighing 19-21 g were used. The drugs were orally administered and one hr. later, pentetrazol was injected subcutaneously at 120 mg/kg. Drug activity is expressed as the percent blocking clonic seizures.

[9] = test system: carrageenin hind paw edema in rats; experiment: Anti-inflammatory activity: carrageenin paw edema; assay type: in vivo, male Wistar rats; details: edema 3 hr after carrageenin, vs control
Procedure: Groups of 5 male Wistar rats weighing 130-150 g were used. One hr. after drug administration, 0.1 ml of a 1% aqueous suspension of carrageenin was injected into the plantar surface of the right hind paw. The volume of the injected paw was measured before and 3 hr. after carrageenin injection by mercury displacement. Drug activity is expressed as the percent difference between the test and control groups' edema.

[10] = test system: acetic acid writhing in mice; experiment: Analgesic activity: acetic acid writhing; assay type: in vivo, male dd mice; details: number of writhes vs control
Procedure: Groups of 10 male dd mice weighing 19-21 g were used. One hr. after drug administration, 0.2 ml of a 0.7% aqueous solution of acetic acid was injected intraperitoneally. Ten min. after acetic acid injection, the number of writhes was counted for each mouse during the following 10 min. Drug activity is expressed as the percent inhibition of the number of writhes in the control group.

[11] = 300 mg/kg p.o., 1 hr after administration
[12] = 300 mg/kg p.o., 2 hr after administration
[13] = 300 mg/kg p.o., 4 hr after administration
[14] = 200 mg/kg p.o., 1 hr after administration
[15] = 200 mg/kg p.o., 2 hr after administration
[16] = 200 mg/kg p.o., 4 hr after administration

SMILES	LD50 at 168 h [1]	LD50 at 168 h [2]	No. of falling mice/five tested mice, slant test (mice [3]; [11])	No. of falling mice/five tested mice, slant test (mice [3]; [12])	No. of falling mice/five tested mice, slant test (mice [3]; [13])	No. of falling mice/five tested mice, traction test (mice [4]; [11])	No. of falling mice/five tested mice, traction test (mice [4]; [12])	No. of falling mice/five tested mice, traction test (mice [4]; [13])	No. of falling mice/five tested mice, rotating rod test (mice [5]; [11])	No. of falling mice/five tested mice, rotating rod test (mice [5]; [12])	No. of falling mice/five tested mice, rotating rod test (mice [5]; [13])	% Inhibition, Maximal Electroshock Test [6]	% Inhibition, Strychnine Convulsion Test ([7]; 300 mg/Kg p.o.)	% Inhibition, Pentetrazole Convulsion Test ([8]; 150 mg/Kg p.o.)	Anti-inflammatory Activity, % Inhibition ([9]; 300 mg/Kg p.o.)	Analgesic Activity, % Inhibition ([10]; 150 mg/Kg p.o.)	other results
Cc1ccc2oc(CC(=O)N(C)C)c(C)c2c1 [B, 2-dimethylcarbamoylmethyl-3,5-dimethylbenzo[b]furan]	> 3000 mg/kg	> 3000 mg/kg	5 mice/five tested mice	4 mice/five tested mice	0 mice/five tested mice	5 mice/five tested mice	5 mice/five tested mice	0 mice/five tested mice	5 mice/five tested mice	5 mice/five tested mice	0 mice/five tested mice	80%	88%	90%	10.2%	24.0%	–
COc1ccc2oc(CC(=O)N(C)C)c(C)c2c1 [A, 2-dimethylcarbamoylmethyl-3-methyl-5 methoxybenzo[b]furan]	> 1000 mg/kg	–	3 mice/five tested mice	1.5 mice/five tested mice	0 mice/five tested mice	2 mice/five tested mice	2 mice/five tested mice	0 mice/five tested mice	5 mice/five tested mice	3 mice/five tested mice	1 mice/five tested mice	30%	60%	40%	23.3%	83.6%	–
Cc1c(CC(=O)N(C)C)oc2ccc(F)cc12 [D, 2-dimethylcarbamoylmethyl-3-methyl-5-fluorobenzo[b]furan]	> 1000 mg/kg	–	4.5 mice/five tested mice	4.5 mice/five tested mice	1 mice/five tested mice	5 mice/five tested mice	5 mice/five tested mice	1 mice/five tested mice	5 mice/five tested mice	5 mice/five tested mice	2 mice/five tested mice	85%	57%	80%	31.2%	32.9%	–
Cc1c(CC(=O)N(C)C)oc2ccc(-c3ccccc3)cc12 [C, 2-dimethylcarbamoylmethyl-3-methyl-5-phenylbenzo[b]furan]	> 1000 mg/kg	–	1.5 mice/five tested mice	1.5 mice/five tested mice	0 mice/five tested mice	2 mice/five tested mice	3 mice/five tested mice	0 mice/five tested mice	3 mice/five tested mice	3 mice/five tested mice	0 mice/five tested mice	100%	70%	30%	20.4%	48.4%	–
CN(C)CCCOc1nn(Cc2ccccc2)c2ccccc12 [Benzydamine . HCl, reference compound]	500 to 1000 mg/kg	> 1500 mg/kg	–	–	–	–	–	–	–	–	–	100%	–	–	–	–	No. of falling mice/five tested mice, slant test (mice [3]; [14]): 2 mice/five tested mice; No. of falling mice/five tested mice, slant test (mice [3]; [15]): 1 mice/five tested mice; No. of falling mice/five tested mice, slant test (mice [3]; [16]): 0 mice/five tested mice; No. of falling mice/five tested mice, traction test (mice [4]; [14]): 0 mice/five tested mice; No. of falling mice/five tested mice, traction test (mice [4]; [15]): 0 mice/five tested mice; No. of falling mice/five tested mice, traction test (mice [4]; [16]): 0 mice/five tested mice; No. of falling mice/five tested mice, rotating rod test (mice [5]; [14]): 4 mice/five tested mice; No. of falling mice/five tested mice, rotating rod test (mice [5]; [15]): 2 mice/five tested mice; No. of falling mice/five tested mice, rotating rod test (mice [5]; [16]): 0 mice/five tested mice; % Inhibition, Strychnine Convulsion Test ([7]; 100 mg/Kg p.o.): 70%; % Inhibition, Pentetrazole Convulsion Test ([8]; 200 mg/Kg p.o.): 0%; Anti-inflammatory Activity, % Inhibition ([9]; 400 mg/Kg p.o.): 20.9%; Analgesic Activity, % Inhibition ([10]; 400 mg/Kg p.o.): 95.2%

From patent publication US4297369A, “Certain muscle relaxant 3-methyl-2-benzofuran acetamides” (Kyowa Hakko Kogyo Co., Ltd., priority 1979, dated 1981)
